Assay results from ChEMBL document CHEMBL4622885, “Rational design, synthesis and biological evaluation of novel multitargeting anti-AD iron chelators with potent MAO-B inhibitory and antioxidant activity” (Bioorg Med Chem, 2020).

Experiments:
[1] = Metal chelating activity assessed as Fe3+ complex formation by measuring stability constant for Fe(I)3 in using pre Fe+3 complexed compound (FeCl3) in 0.1 M KCl :DMSO solution UV-pH titration based spectrophotometric analysis
[2] = Metal chelating activity assessed as Fe3+ complex formation by measuring stability constant for Fe(I)2 in using pre Fe+3 complexed compound (FeCl3) in 0.1 M KCl :DMSO solution UV-pH titration based spectrophotometric analysis
[3] = Dissociation constant, pKa1 of compound for protonation of the 4-oxo group in 0.1 M KCl incubated for 1 min by UV-pH titration based spectrophotometric analysis; assay type: physicochemical
[4] = Dissociation constant, pKa2 of compound for dissociation of the 3-hydroxyl group in 0.1 M KCl incubated for 1 min by UV-pH titration based spectrophotometric analysis; assay type: physicochemical
[5] = Metal chelating activity assessed as Fe3+ complex formation by measuring stability constant for FeI in using pre Fe+3 complexed compound (FeCl3) in 0.1 M KCl :DMSO solution UV-pH titration based spectrophotometric analysis
[6] = molecular target: T1, Amine oxidase [flavin-containing] B (Homo sapiens, UniProt P27338); assay: Inhibition of human recombinant MAO-B expressed in baculovirus infected BTI insect cells using kynuramine as substrate incubated for 10 mins followed by substrate addition by fluorimetric analysis
T1 sequence (P27338 whole entry): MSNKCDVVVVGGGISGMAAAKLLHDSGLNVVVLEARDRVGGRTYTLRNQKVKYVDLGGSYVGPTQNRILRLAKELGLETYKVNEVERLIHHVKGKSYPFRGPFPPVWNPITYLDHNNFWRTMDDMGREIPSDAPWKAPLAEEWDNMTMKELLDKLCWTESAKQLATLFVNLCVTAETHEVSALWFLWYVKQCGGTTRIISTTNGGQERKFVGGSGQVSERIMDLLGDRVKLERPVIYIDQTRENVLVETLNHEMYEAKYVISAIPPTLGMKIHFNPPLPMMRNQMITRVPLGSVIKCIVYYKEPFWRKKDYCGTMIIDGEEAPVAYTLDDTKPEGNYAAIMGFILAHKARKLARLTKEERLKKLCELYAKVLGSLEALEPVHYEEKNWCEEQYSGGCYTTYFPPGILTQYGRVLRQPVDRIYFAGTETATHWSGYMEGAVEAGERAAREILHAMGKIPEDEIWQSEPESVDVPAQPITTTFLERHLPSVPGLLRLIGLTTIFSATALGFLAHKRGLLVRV

[7] = Metal chelating activity assessed as iron chelation
[8] = molecular target: T1, Amine oxidase [flavin-containing] B; assay: Inhibition of human recombinant MAO-B expressed in baculovirus infected BTI insect cells using kynuramine as substrate at 100 nM incubated for 10 mins followed by substrate addition by fluorimetric analysis relative to control

Structure (SMILES) | log(activity) [1] | log(activity) [2] | pKa at 1 min [3] | pKa at 1 min [4] | log(activity) [5] | IC50 [6] | pFe3+ [7] | inhibition at 0.1 µM [8]
Cc1c(O)c(=O)ccn1CCNC(=O)c1cc2cccc(O)c2oc1=O | 34.8 | 26 | 3.35 | 9.98 | 14.4 | 158 nM | 17.6 | 46.2%
Cc1c(O)c(=O)ccn1CCNC(=O)c1cc2ccc(OCc3ccc(F)cc3)cc2oc1=O | 33.5 | 25.1 | 3.27 | 9.76 | 14.2 | 128 nM | 17 | 48.1%
Cc1c(O)c(=O)ccn1CCNC(=O)c1cc2cc(O)ccc2oc1=O | 34.1 | 26.5 | 3.33 | 10.1 | 15.1 | 188 nM | 17.2 | 46.4%
Cc1c(O)c(=O)ccn1C [DEFERIPRONE] | 34.2 to 37.4 | 25.7 to 27.4 | 3.61 to 3.67 | 9.78 to 9.84 | 14.4 to 15.1 | – | 20.7 | –
Cc1c(O)c(=O)ccn1CCNC(=O)c1cc2ccc(OCc3ccc(C(C)C)cc3)cc2oc1=O | 35.6 | 25.6 | 3.18 | 9.79 | 14.6 | 117 nM | 19 | 45.7%
Cc1c(O)c(=O)ccn1CCNC(=O)c1cc2ccc(OCc3ccc(C(F)(F)F)cc3)cc2oc1=O | 34.9 | 25.1 | 3.37 | 9.83 | 14 | 119 nM | 18.1 | 47.4%
Cc1c(O)c(=O)ccn1CCC(=O)Nc1cc2ccccc2oc1=O | 33.3 | 24.8 | 3.29 | 9.48 | 13.8 | 160 nM | 17.6 | 43.5%
Cc1c(O)c(=O)ccn1CCNC(=O)c1cc2ccc(OCC3CCCCC3)cc2oc1=O | 34.7 | 25.1 | 3.29 | 9.76 | 14.3 | – | 18.1 | 44.6%
CCOc1ccc2cc(C(=O)NCCn3ccc(=O)c(O)c3C)c(=O)oc2c1 | 34.7 | 25.6 | 3.3 | 9.75 | 14.2 | 108 nM | 18.2 | 46.2%
Cc1c(O)c(=O)ccn1CCNC(=O)c1cc2ccc(OCc3cccc(Cl)c3)cc2oc1=O | 34.5 | 24.9 | 3.26 | 9.56 | 14.4 | 136 nM | 18.6 | 47.4%
Cc1c(O)c(=O)ccn1CCNC(=O)c1cc2ccc(OCc3cc(F)cc(F)c3)cc2oc1=O | 33.5 | 25 | 3.25 | 9.78 | 14.3 | 125 nM | 16.9 | 47.4%
Cc1c(O)c(=O)ccn1CCNC(=O)c1cc2cc(OCc3ccccc3)ccc2oc1=O | 32 | 24.3 | 3.25 | 9.32 | 13.7 | 100 nM | 16.9 | 47.7%
Cc1c(O)c(=O)ccn1CCNC(=O)c1cc2ccc(OCc3cc(F)ccc3F)cc2oc1=O | 33.6 | 24.9 | 3.2 | 9.74 | 14.1 | 115 nM | 17.2 | 49.1%
Cc1ccc2cc(C(=O)NCCn3ccc(=O)c(O)c3C)c(=O)oc2c1 | 34.3 | 25.4 | 3.32 | 9.75 | 14.2 | 163 nM | 17.8 | 44.3%
COc1ccc2cc(C(=O)NCCn3ccc(=O)c(O)c3)c(=O)oc2c1 | 31.9 | 23.4 | 3.07 | 8.74 | 12.9 | – | 18.3 | 31.3%
Cc1c(O)c(=O)ccn1CCNC(=O)c1cc2ccc(OCc3ccccc3[N+](=O)[O-])cc2oc1=O | 34.6 | 25.9 | 3.24 | 9.74 | 15.1 | 98.6 nM | 18.2 | 50.6%
COc1ccc2oc(=O)c(C(=O)NCCn3ccc(=O)c(O)c3C)cc2c1 | 32.8 | 25.3 | 3.27 | 9.58 | 14.2 | – | 17.1 | 38.5%
Cc1c(O)c(=O)ccn1CCNC(=O)c1cc2ccccc2oc1=O | 33.9 | 25 | 3.22 | 9.59 | 14 | 173 nM | 17.9 | 46.9%
Cc1c(O)c(=O)ccn1CCNC(=O)c1cc2ccc(OCc3cccc(F)c3)cc2oc1=O | 33.3 | 24.7 | 3.32 | 9.65 | 14.1 | 108 nM | 17.1 | 49.1%
Cc1ccc2oc(=O)c(C(=O)NCCn3ccc(=O)c(O)c3C)cc2c1 | 34.1 | 25.4 | 3.33 | 9.67 | 14.1 | – | 17.9 | 34.8%
COc1ccc(COc2ccc3cc(C(=O)NCCn4ccc(=O)c(O)c4C)c(=O)oc3c2)cc1 | 33.3 | 24.8 | 3.24 | 9.77 | 14.1 | 143 nM | 17 | 47.6%
Cc1cc(=O)c(O)cn1CCNC(=O)c1cc2ccccc2oc1=O | 31.8 | 23.3 | 3.3 | 9.05 | 12.9 | 129 nM | 17.3 | 44.8%
Cc1c(O)c(=O)ccn1CCNC(=O)c1cc2ccc(O)cc2oc1=O | 34.2 | 25.2 | 2.75 | 9.92 | 13.8 | – | 17.2 | 29.5%
O=C(NCCn1ccc(=O)c(O)c1)c1cc2ccccc2oc1=O | 31.8 | 23.4 | 3 | 8.74 | 12.9 | 195 nM | 18.2 | 46.1%
Cc1cccc(COc2ccc3cc(C(=O)NCCn4ccc(=O)c(O)c4C)c(=O)oc3c2)c1 | 35.2 | 24.4 | 3.27 | 9.72 | 14.2 | 144 nM | 18.8 | 44.6%
Cc1cccc2cc(C(=O)NCCn3ccc(=O)c(O)c3C)c(=O)oc12 | 35.2 | 25.8 | 3.3 | 9.75 | 14.4 | 156 nM | 18.7 | 44%
COc1ccc2cc(C(=O)NCCn3cc(O)c(=O)cc3C)c(=O)oc2c1 | 33 | 24.5 | 3.34 | 9.07 | 13.9 | – | 18.5 | 35.5%
C#CCOc1ccc2cc(C(=O)NCCn3ccc(=O)c(O)c3C)c(=O)oc2c1 | 34.1 | 25.5 | 3.32 | 9.68 | 14.2 | 143 nM | 17.9 | 20.7%
Cc1c(O)c(=O)ccn1CCNC(=O)c1cc2ccc(OCc3ccccc3)cc2oc1=O | 33.2 | 24.9 | 3.25 | 9.7 | 14.1 | – | 16.9 | 30.1%
